Experimental data from ChEMBL document CHEMBL1134524, “Utilization of an intramolecular hydrogen bond to increase the CNS penetration of an NK(1) receptor antagonist” (J Med Chem, 2001).

biological target: Substance-P receptor (Homo sapiens, UniProt P25103); assay: Inhibition of specific binding at tachykinin receptor 1; conditions: not given
Sequence (P25103 whole entry): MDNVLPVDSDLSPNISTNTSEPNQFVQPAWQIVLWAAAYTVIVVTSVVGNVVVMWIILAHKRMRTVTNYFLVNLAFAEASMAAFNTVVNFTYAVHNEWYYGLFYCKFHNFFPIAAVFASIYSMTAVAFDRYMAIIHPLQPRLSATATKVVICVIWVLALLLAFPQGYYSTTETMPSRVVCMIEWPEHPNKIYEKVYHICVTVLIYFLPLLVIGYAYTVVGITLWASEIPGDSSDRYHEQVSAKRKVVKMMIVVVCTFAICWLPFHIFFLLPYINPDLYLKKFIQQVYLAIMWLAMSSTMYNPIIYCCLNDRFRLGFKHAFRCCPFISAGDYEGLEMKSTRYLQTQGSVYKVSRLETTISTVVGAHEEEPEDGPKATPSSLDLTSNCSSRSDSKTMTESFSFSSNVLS

**Q.** For `COC[C@](Cc1c[nH]c2ccccc12)(NC(=O)OCc1cc2ccccc2o1)C(=O)N[C@@H](C)c1ccccc1`, which IC50 is on record?
**A.** Its IC50 is 0.7 nM.

**Q.** `C[C@H](NC(=O)[C@](Cc1c[nH]c2ccccc12)(CN(C)C)NC(=O)OCc1cc2ccccc2o1)c1ccccc1` was tested. Which IC50 did it give?
**A.** The IC50 was 0.46 nM.

**Q.** `CC(C)C[C@](Cc1c[nH]c2ccccc12)(NC(=O)OCc1cc2ccccc2o1)C(=O)N[C@@H](C)c1ccccc1` was tested. Which IC50 did it give?
**A.** The IC50 was 3.79 nM.

**Q.** `CCC[C@](Cc1c[nH]c2ccccc12)(NC(=O)OCc1cc2ccccc2o1)C(=O)N[C@@H](C)c1ccccc1` was tested. Which IC50 did it give?
**A.** Its IC50 is 0.85 nM.

**Q.** Which IC50 does the source give for `C[C@H](NC(=O)[C@@H](Cc1c[nH]c2ccccc12)NC(=O)OCc1cc2ccccc2o1)c1ccccc1` here?
**A.** Its IC50 is 0.73 nM.

**Q.** For `CC[C@](Cc1c[nH]c2ccccc12)(NC(=O)OCc1cc2ccccc2o1)C(=O)N[C@@H](C)c1ccccc1`, which IC50 is on record?
**A.** The IC50 was 0.96 nM.

tested on: Meriones unguiculatus; assay: Minimal effective dose to antagonize the foot tapping response when administered subcutaneously (0.1-10 mg/kg) in gerbil; conditions: sc, read-out: MED

**Q.** For `C[C@H](NC(=O)[C@](Cc1c[nH]c2ccccc12)(CN(C)C)NC(=O)OCc1cc2ccccc2o1)c1ccccc1`, which minimal effective dose is on record?
**A.** The minimal effective dose was 1 mg/kg.
